Results published in patent US7736856B2, “Method of screening drug with the use of 67 kDa laminin receptor and drug obtained thereby” (Kyushu TLO Company, Limited, priority 2003, dated 2010).

How the values were obtained:
A549 cells = experiment: Binding to A549 cells (empty vector / parent) by surface plasmon resonance sensor; parameters: species or system human; details: for cell binding to A549 cells: surface plasmon resonance biosensor, 5 μM
Protocol: (§1) The binding of various component (5 μM) to the cells was determined by using a surface plasmon resonance sensor SPR670 (Nippon Laser and Electronic Lab., Nagoya, Japan). For the measurement, the cells were fixed on a gold membrane (Nippon Laser and Electronic Lab.) according to a standard fixation method for protein. Precisely, a gold membrane was dipped in a solution in ethanol of […] of 4,4-dithiodibutyric acid, DDA (Tokyo Kasei Kogyo Co., Ltd., Tokyo, Japan) (this was prepared by dissolving 2.38 mg of DDA in 10 ml of 99% ethanol followed by diluting it with ethanol to 1/100) in such a manner that its gold surface could face upward, and gently stirred at room temperature for 30 minutes. Next, this was washed twice with ethanol with no pressure applied to the gold surface to thereby introduce a self-assembly membrane (SA membrane). 25 mg of a water-soluble carbodiimide, EDC (Wako Pure Chemicals) was dissolved in 1 ml of ultra-pure water; and 15 mg of N-hydroxysuccinimide, NHS (Wako Pure Chemicals) was dissolved in 9 ml of 1,4-dioxane (Nacalai Tesque, Inc.). These solutions were mixed, and the SA membrane-processed gold membrane was dipped into the mixture, and gently stirred at room temperature for 10 minutes. 10 ml of ultra-pure water was added, and further stirred at room temperature for 5 minutes. This was washed twice with ultra-pure water with no water pressure applied to the gold surface thereof, then dried (in air), and mounted on a cartridge. The cells were suspended to a density of 3×10^5 cells/ml (in a flow buffer, PBS), and 20 μl of the cell suspension was dropwise applied onto the gold membrane and kept at room temperature for 30 minutes so as to fix the cells onto the membrane. Next, a green tea catechin diluted with PBS to have a concentration of 1, 10, 25 or 50 μM was applied thereto, and the change in the surface plasmon resonance angle was determined so as to monitor its binding to the cells.
(§2) 67LR is a membrane protein existing in a cell membrane, and the fact that the EGCG effect was enhanced in the cells with the gene expression vector introduced therein would be due to the increase in the EGCG binding. Accordingly, the EGCG binding to the cells was determined by the sue of a surface plasmon resonance sensor. EGCG was used at 5 μM.

[1] = target: T1, 67LR forced expression cells (A549 with 67LR expression vector) (Homo sapiens, UniProt P08865); experiment: Binding to 67LR forced expression cells by surface plasmon resonance sensor; details: for change of cell binding in 67LR forced expression cells: surface plasmon resonance biosensor, 5 μM; for angle change (binding amount): EGCG 5 μM
T1 construct: expressed in transfected cells; host or cells: A549 cells, transient transfection with pTARGET-hLamininR (FuGENE 6)
Protocol: as §1, §2

[2] = test system: 67LR forced expression cells (A549); experiment: Cell growth test (cell count, Tripanblue staining) on 67LR transient expression A549 cells; assay type: cell-based, human; details: for number of the cells / growth inhibiting effect (influence of 67LR gene introduction) / survival rate (influence of 67LR gene introduction): 5 μM, 0.5 μg pTARGET-hLamininR in A549 cells; for survival rate (influence of 67LR gene introduction): Tripanblue staining
Protocol: The 67LR expression vector constructed (pTARGET-hLamininR) was introduced into A549 cells, using FuGENE™ 6 Transfection Reagent. Its details are described below. The cells were inoculated into a 10% FBS-ERDF medium at 1×10^4 cells/ml. By keeping at 37° C. for 24 hours, the cells were adhered to the medium. Next, a fresh ERDF medium was put into a tube, and FuGENE™ 6 (three times the amount of the gene) was directly added and gently mixed. Next, pTARGET-hLamininR was added and gently mixed, and this was kept at room temperature for 30 minutes. This was added to the medium, and kept at 37° C. for 48 hours. The cells were washed with a medium, and then the medium was changed with a fresh one.
(§3) Various components of various concentrations were added to the 67LR transient expression cells, and treated in a 5% FBS-containing ERDF medium at 37° C. for 48 hours. After the treatment, the number of the cells was counted, and the survival rate of the cells was determined according to a Tripanblue staining method.
Using FuGENE™ 6 Transfection Reagent, a 67LR expression vector (pTARGET-hLamininR) was introduced into A549 cells according to the method mentioned below. The cells were inoculated at 1×10^4 cells/ml (10% FBS-ERDF medium). After 24 hours, a fresh ERDF medium was put into a tube, and FuGENE™ 6 (three times the amount of the gene) was directly added and gently mixed. Next, pTARGET-hLamininR of varying concentrations were added and gently mixed, and this was kept at room temperature for 30 minutes. This was added to the medium, and was continuously cultured at 37° C. for 48 hours. EGCG of various concentrations were added to the 67LR transient expression cells, and treated with a 5% FBS-containing ERDF medium at 37° C. for 48 hours. After the treatment, the number of the cells was counted and the survival rate thereof was determined according to a Tripanblue staining method.
First, the influence of the substances on the growth of 67LR forced expression cells was investigated. Similarly to the above, 0.5 μg of pTARGET-hLamininR was introduced into A549 cells by the lipofection method, followed by cultivation at 37° C. for 48 hours. Then, the cells were treated with various tea components each having a final concentration of 5 μM. The cells were further cultivated at 37° C. for 48 hours, and then the number of the cells and the survival rate thereof were determined.

[3] = target: T2, 67LR forced expression cells (Homo sapiens, UniProt P08865); experiment: Growth inhibition by EGCG after anti-67LR antibody pretreatment of 67LR forced expression cells; assay type: cell-based
T2 construct: expressed in transfected cells; host or cells: A549 cells, transient transfection with pTARGET-hLamininR (FuGENE 6)
Protocol: as §3
Regarding […] pretreatment, an anti-67LR antibody having a final concentration of 10 μg/ml (1% FBS-containing ERDF medium) was treated at 37° C. for 30 minutes, and then EGCG treatment was carried out so as to investigate the influence thereof on the antibody-treatment cells. As a negative control, the same treatment was carried out with mouse IgM.

67LR on cell surfaces = 67LR on cell surfaces (Homo sapiens, UniProt P08865); experiment: Flow cytometry: influence of EGCG treatment on detection of cell surface 67LR by anti-67LR antibody; assay type: binding
Protocol: It is known that 67LR is expressed on cell surfaces. Therefore, 67LR expressed on the surfaces of the cells was detected through flow cytometry analysis using an anti-human laminin receptor (LR) antibody. The cells were collected, and using a 1.5-ml Eppendorf tube, they were added to 100 μl, as a whole, of 1% FBS-PBS at 1×10^6 cells therein. A primary antibody, anti-human LR antibody was added to it to have a final concentration of 10 μg/ml. This was incubated at 4° C. for 30 minutes, and then washed once with PBS. Next, a secondary antibody, anti-mouse IgM FITC-labeled antibody capable of recognizing an isotype of LR antibody was added to 25 μl, as a whole, of 1% FBS-PBS so as to have a final concentration of 12.5 μg/ml. This was incubated at 4° C. for 30 minutes, then washed twice with PBS, and re-suspended in PBS, and analyzed with a flow cytometer. A negative control IgM antibody of the same concentration (10 μg/ml) was reacted in the same manner as herein. The 67LR expression amount on the cell surfaces was indicated by the center value of the fluorescent intensity of LR.
For the purpose of investigating the influence of EGCG treatment on the cell surface expression of 67LR, the cells were treated with an EGCG-added 1% FBS-PBS having a final EGCG concentration of 50 μM, and then kept at 37° C. for 30 minutes. This was washed once with PBS. Then, this was treated in the same manner as above with the primary antibody and others, and analyzed. As a control, the cells were treated with an EGCG-free 1% FBS-PBS.

[4] = target: T2, 67LR forced expression cells; experiment: Binding competition test of EGCG and anti-67LR antibody (surface plasmon resonance sensor); details: cells pretreated with anti-67LR antibody 10 μg/ml, 37° C., 30 minutes
Protocol: as §1, with “These solutions were mixed, and the SA membrane-processed gold membrane was dipped into the mixture, and gently stirred at room temperature for 10 minutes. 10 ml of ultra-pure water was added, and further stirred at room temperature for 5 minutes. This was washed twice with ultra-pure water with no water pressure applied to the gold surface thereof, then dried (in air), and mounted on a cartridge. The cells were suspended to a density of 3×10^5 cells/ml (in a flow buffer, PBS), and 20 μl of the cell suspension was dropwise applied onto the gold membrane and kept at room temperature for 30 minutes so as to fix the cells onto the membrane.” left out, “cells. […]” for “cells.”

Molecule	cell binding to A549 cells (A549 cells)	change of cell binding in 67LR forced expression cells [1]	number of the cells / growth inhibiting effect (influence of 67LR gene introduction) ([2]; 48 hours)	survival rate (influence of 67LR gene introduction) ([2]; 48 hours)	further results
O=C(O[C@@H]1Cc2c(O)cc(O)cc2O[C@@H]1c1ccc(O)c(O)c1)c1cc(O)c(O)c(O)c1 [ECG, epicatechin-3-O-gallate]	showed cell binding though not comparable to that of EGCG	cell binding increased	increase in the growth inhibiting effect	–	–
Oc1cc(O)c2c(c1)O[C@H](c1cc(O)c(O)c(O)c1)[C@H](O)C2 [EGC, epigallocatechin]	no binding	no change	no influence	no influence	–
COc1cc(C(=O)O[C@@H]2Cc3c(O)cc(O)cc3O[C@@H]2c2cc(O)c(O)c(O)c2)cc(O)c1O [EGCG3″Me, epigallocatechin-3-(3-O-methyl)-gallate]	showed cell binding though not comparable to that of EGCG	cell binding increased	increase in the growth inhibiting effect	–	–
Cn1c(=O)c2c(ncn2C)n(C)c1=O [caffeine, Caffeine]	did not show cell binding	no change	no influence	–	–
O=c1c(O)c(-c2ccc(O)c(O)c2)oc2cc(O)cc(O)c12 [quercetin]	did not show cell binding	no change	no influence	no influence	–
catechin	no binding	no change	no influence	no influence	–
epigallocatechin-3-O-gallate [EGCG]	–	–	increase in the growth inhibiting effect	–	angle change (binding amount) (A549 cells; EGCG 5 μM, A549 cells with empty vector): Only a little angle change; angle change (binding amount) ([1]; cells with 0.25 μg of 67LR expression vector): a great increase in the angle; angle change (binding amount) ([1]; cells with 0.5 μg of 67LR expression vector): a further greater increase in the angle; survival rate ([3]; EGCG with or without antibody pretreatment, Tripanblue staining): no influence on the survival rate was found; growth inhibiting activity after antibody treatment ([3]; anti-67LR antibody treatment before EGCG): the growth inhibiting activity was lost; apparent 67LR expression detected by anti-67LR antibody after EGCG (67LR on cell surfaces; EGCG 50 μM before antibody, 67LR-introduced cells): it was the same; apparent 67LR expression detected by anti-67LR antibody after EGCG (67LR on cell surfaces; EGCG 50 μM before antibody, cells with empty vector): The same phenomenon was found; apparent 67LR expression detected by anti-67LR antibody after EGCG (67LR on cell surfaces; EGCG 50 μM, 37° C., 30 minutes before antibody, control A549 cells): apparently disappeared; growth inhibiting activity ([2]; EGCG 0.1 μM, 67LR forced expression cells): showed its growth inhibiting activity; cell growth inhibition ([2]; EGCG of various concentrations, 67LR transiently expressed A549 cells, 5% FBS ERDF, 37° C., 48 hours): concentration-dependent cell growth inhibition was observed; cell growth inhibition versus 67LR gene amount introduced ([2]; pTARGET-hLamininR of varying concentrations, EGCG, 48 hours): in proportion to the 67LR gene amount introduced into the cells, cell growth inhibition was also observed; EGCG binding amount (angle change) [4]: reduction; EGCG binding speed [4]: reduction
